Experimental data: patent US20150118229A1, “JAK1 SELECTIVE INHIBITOR AND USES THEREOF” (ABBVIE INC., priority 2013, published 2015)
Values joined by “and” are separate entries in the source; they are usually repeats but may differ in a detail not shown here. Identical values can stand only once. “Also recorded” adds a separate entry of the source. Like-named read-outs stand apart in the source and are kept apart here.

Assays:
OATP1B1 = OATP1B1 (Homo sapiens, UniProt Q9Y6L6); experiment: Transporter inhibition, OATP1B1
Chain of OATP1B1 (Q9Y6L6 whole entry): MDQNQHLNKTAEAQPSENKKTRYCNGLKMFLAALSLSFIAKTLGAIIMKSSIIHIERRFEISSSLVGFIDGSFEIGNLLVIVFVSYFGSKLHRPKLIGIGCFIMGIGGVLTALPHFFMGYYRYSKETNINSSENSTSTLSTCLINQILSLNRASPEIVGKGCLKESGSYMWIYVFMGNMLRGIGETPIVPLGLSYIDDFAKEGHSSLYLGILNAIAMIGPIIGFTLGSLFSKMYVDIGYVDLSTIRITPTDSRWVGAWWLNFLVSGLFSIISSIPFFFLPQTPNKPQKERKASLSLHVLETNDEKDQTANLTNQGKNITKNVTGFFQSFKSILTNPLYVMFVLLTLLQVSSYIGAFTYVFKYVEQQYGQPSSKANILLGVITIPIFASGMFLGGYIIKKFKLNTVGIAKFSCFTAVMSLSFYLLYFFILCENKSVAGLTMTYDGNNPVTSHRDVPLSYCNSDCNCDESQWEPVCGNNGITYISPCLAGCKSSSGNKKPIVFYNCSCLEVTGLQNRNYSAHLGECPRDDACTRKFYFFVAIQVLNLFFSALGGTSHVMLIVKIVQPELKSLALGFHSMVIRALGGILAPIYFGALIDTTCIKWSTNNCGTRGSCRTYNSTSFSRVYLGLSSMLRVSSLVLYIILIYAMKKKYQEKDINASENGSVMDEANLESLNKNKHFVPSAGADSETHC

CYP1A2 = experiment: CYP induction (mRNA) in human hepatocytes, CYP1A2; type: in vitro ADME; details: 1, 3, and 10 μM
in vivo = details: dog; for AUC(0-inf): AUC0-∞
CYP2C9 = CYP2C9 (Homo sapiens, UniProt P11712); experiment: CYP inhibition in human liver microsomes, CYP2C9
Chain of CYP2C9 (P11712 whole entry): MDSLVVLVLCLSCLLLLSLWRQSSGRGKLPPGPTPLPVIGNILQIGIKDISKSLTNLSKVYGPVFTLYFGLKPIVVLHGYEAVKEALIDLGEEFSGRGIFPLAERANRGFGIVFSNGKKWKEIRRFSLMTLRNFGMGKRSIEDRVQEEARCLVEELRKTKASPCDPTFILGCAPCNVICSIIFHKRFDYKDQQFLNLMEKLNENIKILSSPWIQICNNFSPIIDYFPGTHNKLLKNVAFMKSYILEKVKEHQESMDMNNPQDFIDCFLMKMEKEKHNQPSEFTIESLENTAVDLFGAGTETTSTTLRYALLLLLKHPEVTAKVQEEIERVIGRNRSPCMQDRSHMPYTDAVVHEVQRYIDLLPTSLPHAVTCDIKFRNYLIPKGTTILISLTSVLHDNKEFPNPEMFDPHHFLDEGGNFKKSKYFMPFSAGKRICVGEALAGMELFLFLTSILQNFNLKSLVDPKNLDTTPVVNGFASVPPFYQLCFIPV

[1] = [14C]Compound 1 absorption and excretion in bile duct-cannulated rats; type: in vivo, Sprague-Dawley male rats
[2] = Metabolic stability in liver microsomes, rat; type: in vitro ADME; details: read-out: intrinsic clearance in liver microsomes (scaled) (converted)
[3] = Clinical safety, Study M13-401
[4] = Pharmacokinetics in monkey; type: in vivo; details: for Vd: read-out: Vss
CYP3A4 = experiment: CYP induction (mRNA) in human hepatocytes, CYP3A4; type: in vitro ADME; details: 1, 3, and 10 μM
[5] = Metabolic stability in hepatocytes, dog; type: in vitro ADME; details: read-out: intrinsic clearance in hepatocytes (converted)
[6] = Metabolic stability in hepatocytes, monkey; type: in vitro ADME; details: read-out: intrinsic clearance in hepatocytes (converted)
[7] = Non-GLP 4-week oral screening toxicity study in dogs; type: in vivo, beagle dogs; details: dog, 4 weeks
[8] = Pharmacokinetics across species; type: in vivo; details: rat, monkey, dog, plasma
[9] = Plasma protein binding, monkey; type: in vitro ADME
[10] = Definitive embryofetal development toxicity study in rats; type: in vivo; details: rat
Text: One additional group of 25 time-mated females served as the control and received the vehicle, 0.2% hydroxypropyl methylcellulose (HPMC, high viscosity) in deionized water.

BCRP = molecular target: T1, BCRP (Homo sapiens, UniProt Q9UNQ0); experiment: BCRP inhibition; type: in vitro ADME
T1 construct: expressed in transfected cells; host or cells: MDCKII-BCRP
T1 sequence (Q9UNQ0 whole entry): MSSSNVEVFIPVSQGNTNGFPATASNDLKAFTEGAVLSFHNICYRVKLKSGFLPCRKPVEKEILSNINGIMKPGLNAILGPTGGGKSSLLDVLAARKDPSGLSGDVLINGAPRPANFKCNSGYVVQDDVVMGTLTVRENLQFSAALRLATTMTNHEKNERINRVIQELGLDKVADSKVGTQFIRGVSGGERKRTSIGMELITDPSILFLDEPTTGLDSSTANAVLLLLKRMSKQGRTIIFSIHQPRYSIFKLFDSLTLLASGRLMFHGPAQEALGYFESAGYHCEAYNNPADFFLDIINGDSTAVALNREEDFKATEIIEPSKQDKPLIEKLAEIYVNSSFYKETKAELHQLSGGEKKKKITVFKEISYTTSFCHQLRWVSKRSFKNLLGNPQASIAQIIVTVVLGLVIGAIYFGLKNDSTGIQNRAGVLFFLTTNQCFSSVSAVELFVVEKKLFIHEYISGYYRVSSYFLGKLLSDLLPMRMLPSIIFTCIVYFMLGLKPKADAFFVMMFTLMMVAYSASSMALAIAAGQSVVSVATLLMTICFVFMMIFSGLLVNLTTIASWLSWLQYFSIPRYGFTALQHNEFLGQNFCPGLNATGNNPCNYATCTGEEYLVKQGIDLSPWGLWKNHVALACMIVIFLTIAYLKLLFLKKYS

OCT2 = OCT2 (Homo sapiens, UniProt O15244); experiment: Transporter inhibition, OCT2; details: up to 30 μM
Chain of OCT2 (O15244 whole entry): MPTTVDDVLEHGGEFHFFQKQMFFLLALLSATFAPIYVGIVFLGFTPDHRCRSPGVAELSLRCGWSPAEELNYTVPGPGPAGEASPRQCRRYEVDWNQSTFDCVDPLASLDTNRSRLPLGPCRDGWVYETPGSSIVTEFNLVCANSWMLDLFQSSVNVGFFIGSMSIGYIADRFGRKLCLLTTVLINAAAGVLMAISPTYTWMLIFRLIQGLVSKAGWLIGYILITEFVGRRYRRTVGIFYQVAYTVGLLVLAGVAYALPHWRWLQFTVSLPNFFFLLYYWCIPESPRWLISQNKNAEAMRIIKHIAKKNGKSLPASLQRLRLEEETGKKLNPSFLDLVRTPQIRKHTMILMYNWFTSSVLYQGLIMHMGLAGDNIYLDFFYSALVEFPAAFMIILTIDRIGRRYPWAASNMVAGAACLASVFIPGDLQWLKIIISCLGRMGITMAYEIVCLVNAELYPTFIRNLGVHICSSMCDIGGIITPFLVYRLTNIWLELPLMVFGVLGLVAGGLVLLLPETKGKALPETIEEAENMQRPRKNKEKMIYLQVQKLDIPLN

[11] = test system: GMCSF-induced pSTAT5 (Jak2 signaling); experiment: Ex vivo stimulation assay GM-CSF pSTAT5, orally dosed human; details: 24 mg but not 12 mg oral, 1 hour post dose
[12] = In vitro metabolism of [14C]Compound 1 in liver cytosol and hepatocytes; type: in vitro ADME, rat, dog, monkey, and human
Text: In vitro biotransformation of Compound 1 primarily occurred at imidazolpyrrolopyrazinyl ethyl pyrrolidine moiety.

IL-6 signaling = experiment: Whole blood assay IL-6 pSTAT3 CD14+; type: cell-based
[13] = Metabolic stability in liver microsomes, monkey; type: in vitro ADME; details: read-out: intrinsic clearance in liver microsomes (scaled)
CYP2D6 = CYP2D6 (Homo sapiens, UniProt P10635); experiment: CYP inhibition in human liver microsomes, CYP2D6
Chain of CYP2D6 (P10635 whole entry): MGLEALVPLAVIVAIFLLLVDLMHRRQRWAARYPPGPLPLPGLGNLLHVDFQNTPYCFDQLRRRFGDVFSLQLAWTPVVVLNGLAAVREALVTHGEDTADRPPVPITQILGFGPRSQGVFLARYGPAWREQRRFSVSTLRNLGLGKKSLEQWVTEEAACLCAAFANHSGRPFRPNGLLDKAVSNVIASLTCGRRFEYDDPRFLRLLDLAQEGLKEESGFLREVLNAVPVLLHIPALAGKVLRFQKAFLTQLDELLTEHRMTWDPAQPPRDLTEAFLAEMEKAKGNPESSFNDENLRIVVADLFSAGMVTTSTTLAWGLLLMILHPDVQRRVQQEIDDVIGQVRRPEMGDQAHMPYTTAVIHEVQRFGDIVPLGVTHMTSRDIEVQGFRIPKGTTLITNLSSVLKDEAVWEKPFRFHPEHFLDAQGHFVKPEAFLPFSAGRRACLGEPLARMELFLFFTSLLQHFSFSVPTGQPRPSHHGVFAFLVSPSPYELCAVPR

CYP2B6 = experiment: CYP induction (mRNA) in human hepatocytes, CYP2B6; type: in vitro ADME
[14] = Plasma protein binding, rat; type: in vitro ADME
[15] = Definitive embryofetal development toxicity study in rabbits; type: in vivo, New Zealand White rabbits; details: rabbit
Text: One additional group of 20 time-mated females served as the control and received the vehicle, 0.2% hydroxypropyl methylcellulose (HPMC, high viscosity) in deionized water.

[16] = both, beagle, po, 0.5 mg/kg/day
[17] = plasma, oral 1 mg/kg single dose, mean (SD)
[18] = plasma, oral 10 mg/kg single dose, mean (SD)

CC[C@@H]1CN(C(=O)NCC(F)(F)F)C[C@@H]1c1cnc2cnc3[nH]ccc3n12 [Compound 1, (3S,4R)-3-ethyl-4-(3H-imidazo[1,2-a]pyrrolo[2,3-e]pyrazin-8-yl)-N-(2,2,2-trifluoroethyl)pyrrolidine-1-carboxamide]
IC50 (OATP1B1): 48 µM | mRNA expression of CYP1A2 (CYP1A2): did not increase | AUC (in vivo; [16]): 359 ng·h/mL | AUC at 28 days (in vivo; [16]): 339 ng·h/mL | AUC (in vivo; both, beagle, po, 3 mg/kg/day): 2200 ng·h/mL | AUC at 28 days (in vivo; both, beagle, po, 3 mg/kg/day): 2140 ng·h/mL | Cmax (in vivo; both, beagle, po, 3 mg/kg/day): 617 ng/mL | AUC (in vivo; both, beagle, po, 5 mg/kg/day): 4430 ng·h/mL | AUC at 28 days (in vivo; both, beagle, po, 5 mg/kg/day): 4100 ng·h/mL | Cmax (in vivo; both, beagle, po, 5 mg/kg/day): 1240 ng/mL | Vd (in vivo; iv, 1 mg/kg): 2.6 L/kg | clearance (in vivo; iv, 1 mg/kg): 11 mL/min/kg | half-life (in vivo; iv, 1 mg/kg): 3.1 h | AUC(0-inf) (in vivo; iv, 1 mg/kg): 1610 ng·h/mL | half-life (in vivo; po, 1 mg/kg): 2.8 h | AUC(0-inf) (in vivo; po, 1 mg/kg): 1240 ng·h/mL | Cmax (in vivo; po, 1 mg/kg): 349 ng/mL | AUC(0-inf) (in vivo; po, 5 mg/kg): 5310 ng·h/mL | time-dependent inhibition of CYP2C9 (CYP2C9; human liver microsomes): No obvious time-dependent inhibition | inhibition of CYP2C9 (CYP2C9; up to 30 μM): did not inhibit; also recorded: not an inhibitor | mean total recovery of dosed radioactivity ([1]; intravenous): 96.0% | radioactivity excreted into bile ([1]; intravenous): 49.7 % of dose | radioactivity excreted into urine ([1]; intravenous): 23.7 % of dose | mean total recovery of dosed radioactivity ([1]; oral): 96.8% | parent drug excreted unchanged in urine ([1]; oral): 9% | radioactivity excreted into bile ([1]; oral): 52.6 % of dose | radioactivity excreted into urine ([1]; oral): 11.1 % of dose | dose absorbed (radioactivity in bile and urine) ([1]; single oral dose 3 mg/kg): at least 63.7% | CLint scaled at 0.5 μM [2]: 84.7 mL/min/kg | effects on blood pressure and heart rate ([3]; FIH study, through highest single dose of 48 mg): no effects | subjects meeting predefined criteria for potentially clinically significant QT or QTcF interval ([3]; Study M13-401): No subjects | adverse events severe, serious, or fatal ([3]; Study M13-401 Substudy 1 and 2): None | dose-limiting toxicities ([3]; healthy volunteers, single doses 1 to 48 mg and 3, 6, 12, 24 mg twice daily 14 days): no dose-limiting toxicities | Vc ([4]; IV 0.1 mg/kg single dose): 1.2 L/kg | Vβ ([4]; IV 0.1 mg/kg single dose): 2.2 L/kg | Vc ([4]; IV 1.0 mg/kg single dose): 1.0 L/kg | Vβ ([4]; IV 1.0 mg/kg single dose): 2.2 L/kg | F ([4]; oral 1 mg/kg single dose, mean (SD), 1 mg/kg): 59.3% and 59.3 (18.1) % | F ([4]; oral 10 mg/kg single dose, mean (SD)): 52.3 (12.4) % | AUC(0-inf) ([4]; plasma, IV 0.1 mg/kg single dose, mean (SD)): 72 ng·h/mL | clearance ([4]; plasma, IV 0.1 mg/kg single dose, mean (SD), read-out: CLp (converted)): 23.3 mL/min/kg | Vd ([4]; plasma, IV 0.1 mg/kg single dose): 1.9 L/kg | half-life ([4]; plasma, IV 0.1 mg/kg single dose, read-out: t1/2 (converted)): 1.1 h | AUC(0-inf) ([4]; plasma, IV 1.0 mg/kg single dose, mean (SD)): 947 ng·h/mL | clearance ([4]; plasma, IV 1.0 mg/kg single dose, mean (SD), read-out: CLp (converted)): 20 mL/min/kg | Vd ([4]; plasma, IV 1.0 mg/kg single dose): 1.6 L/kg | half-life ([4]; plasma, IV 1.0 mg/kg single dose, read-out: t1/2 (converted)): 1.3 h | clearance ([4]; plasma, IV, read-out: clearance (converted)): 21.7 mL/min/kg | half-life ([4]; plasma, IV, read-out: plasma elimination t½ (converted)): 1.2 h | AUC(0-inf) [4, 17]: 562 ng·h/mL | Cmax [4, 17]: 134 ng/mL | AUC(0-inf) [4, 18]: 4950 ng·h/mL | Cmax [4, 18]: 960 ng/mL | Tmax [4, 18]: 4.3 h | mRNA expression of CYP3A4 (CYP3A4): did not increase | CLint scaled at 1 μM [5]: 6.92 mL/min/kg | CLint scaled at 1 μM [6]: 6.88 mL/min/kg | NOAEL ([7]; 5 mg/kg/day): None | Adverse Findings ([7]; leading number = dose mg/kg/day): 5: Popliteal lymph | Vd ([8]; iv, all species, read-out: Vss): 1.6 to 2.7 L/kg | half-life ([8]; oral, read-out: plasma elimination half-life after oral dosing): 3 to 5 h | fraction unbound [9]: 0.61 | maternal clinical observations, body weights, food consumption, macroscopic examinations ([10]; GD 6 to 17): No Compound 1-related effects | NOEL ([10]; oral, GD 6-17): NOEL < 5 mg/kg/day | IC50 (BCRP): 126 µM | inhibition of OCT2 uptake (OCT2): No significant inhibition | inhibition of GMCSF-induced pSTAT5 [11]: partial inhibition | metabolism in liver cytosol incubations ([12]; liver cytosol): No metabolism | turnover in hepatocytes ([12]; rat, dog, monkey, human hepatocytes): < 10% | IC50 (IL-6 signaling; read-out: IL-6 (pSTAT3, CD14+)): 0.017 µM | IC50 (IL-6 signaling; whole blood, read-out: IC50 IL-6 pSTAT3 CD14+): 0.017 µM | CLint scaled at 0.5 μM [13]: < 26.7 mL/min/kg | time-dependent inhibition of CYP2D6 (CYP2D6; human liver microsomes): No obvious time-dependent inhibition | inhibition of CYP2D6 (CYP2D6; up to 30 μM): did not inhibit; also recorded: not an inhibitor | CYP2B6 mRNA expression, % of the response of phenobarbital (CYP2B6; 10 μM): 25% | mRNA expression of CYP2B6 (CYP2B6; 1 and 3 μM): did not increase | fraction unbound [14]: 0.36 | adverse events severe, serious, or fatal (Study M13-845): None | number of adverse events in combined treatment groups (Substudy 2, RA on MTX, 6, 12, 24 mg BID, all reported as not related): 7 | subjects reporting treatment emergent AEs (6 out of 42) (healthy volunteers, as printed under Substudy 1): 14.3% | maternal and fetal examinations ([15]; 2.5 and 10 mg/kg/day): no Compound 1-related effects | NOEL ([15]; oral, GD 7-19): NOEL = 10 mg/kg/day
